Experimental data: article PMC6723440 (Toxins, 2019)
Like-named read-outs stand apart in the source and are kept apart here.

How the values were obtained:
[1] = human; for percentage of metabolized parent toxin in phase I reactions: microsomes, 1 h
[2] = human, pH 7.4
[3] = human; cited from earlier work
[4] = in vivo; cited from earlier work
[5] = human, pH 7.4; remark: listed apart in the source

In the case of `CC(=O)O[C@@H]1C[C@]2(C)[C@@]3(CO)[C@H](O)C(=O)C(C)=C[C@H]3O[C@H]1[C@@]21CO1` [3-AcDON, 3-acetyldeoxynivalenol], the “converted into DON” value ([1]; pH 7.4) is listed as 50%, the “LC-MS Library: metabolites generated” value [2] is listed as “Phase I metabolites: DON Glucuronides: Gluc-3-AcDON” and the “metabolized to DON” value [3] is listed as 78%.
With `CC(=O)OC[C@]12[C@H](O)C(=O)C(C)=C[C@H]1O[C@@H]1[C@H](O)C[C@@]2(C)[C@]12CO2` [15-AcDON, 15-acetyldeoxynivalenol] the “converted into DON” value ([1]; pH 7.4) was 1% and the “LC-MS Library: metabolites generated” value [2] was “Phase I metabolites: DON Glucuronides: Gluc-15-AcDON”.
In the case of `CC1=C[C@H]2O[C@@H]3[C@H](O)C[C@](C)([C@@]2(CO)[C@H](O)C1=O)[C@]31CO1` [DON, deoxynivalenol], the “converted into DNIV” value ([1]; pH 7.4) is given as “less than 1%”, the “LC-MS Library: metabolites generated” value [2] is given as “Phase I metabolites: NIV, DOM-1 and its two isomers, Glucuronides: 15-Gluc-DON, 3-Gluc-DON” and the “predominant species in urine” value [4] is given as 27%. The “total urinary DON present as free DON” value [4] was 27.4% and the “total urinary deoxynivalenol (DON) composed of its glucuronides (15-Gluc-DON and 3-Gluc-DON)” value [4] was “approximately 72.6%”.
In the case of `CC(=O)OC[C@]12C[C@H](OC(=O)CC(C)C)C(C)=C[C@H]1O[C@@H]1[C@H](O)[C@@H](O)[C@@]2(C)[C@]12CO2` [HT-2, HT-2 toxin], the “LC-MS Library: metabolites generated” value [2] is reported as “Phase I metabolites: 4-de-Ac-NEO and its isomer, 3′-OH-HT-2, 4′-OH-HT-2 and its isomer Three OH-T-2 metabolites at 7 or 10 or 16-OH-HT-2 Two unknown metabolites Glucuronides: Gluc-3-HT-2”.
With `CC1=C[C@H]2O[C@@H]3[C@H](O)[C@@H](O)[C@](C)([C@@]2(CO)[C@H](O)C1=O)[C@]31CO1` [NIV, nivalenol] the “converted into DNIV” value ([1]; pH 7.4) was 5% and the glucuronidation [5] was under 1%.
With `CC(=O)OCC12CC(OC(=O)CC(C)C)C(C)=CC1OC1C(OC3OC(C(=O)O)C(O)C(O)C3O)C(OC(C)=O)C2(C)C12CO2` (stereo not drawn) [T-2 glucuronide] the “share of glucuronide form” value [5] was 8%.
In the case of `C[C@H]1CCCC(=O)CCCCCc2cc(O)cc(O)c2C(=O)O1` [ZAN, zearalanone], the “percentage of metabolized parent toxin in phase I reactions” value (“percentage of metabolized parent toxin” below) ([1]; pH 7.4) is reported as 66%, the “Number of Metabolites (n): Desaturation oxidation, −(H2) +(O2)” value ([1]; pH 7.4) is reported as 2 and the “Number of Metabolites (n): Desaturation, oxidation, −(H2) +(O)” value ([1]; pH 7.4) is reported as 1. The “Number of Metabolites (n): Desaturation, oxidation, −(H4) +(O)” value ([1]; pH 7.4) was 0, the “Number of Metabolites (n): Oxidation +(O)” value ([1]; pH 7.4) was 5(23%) and the “Number of Metabolites (n): Oxidation, +(O2)” value ([1]; pH 7.4) was 6(27%). The “Number of Metabolites (n): Oxidation, −(H4) +(O2)” value ([1]; pH 7.4) was 0, the “share of Oxidation +(O) metabolites in ∑ n” value ([1]; pH 7.4) was 5(23%) and the “share of Oxidation, +(O2) metabolites in ∑ n” value ([1]; pH 7.4) was 6(27%). For the same compound, the “share of Reduction, oxidation, +(H2) +(O) metabolites in ∑ n” value ([1]; pH 7.4) was 8(36%), the “∑ n, total number of oxidized metabolites” value ([1]; pH 7.4) was 22 and the “Total Number of Glucuronides” value [5] was 24. For the same compound, the converted into glucoronides [5] was 93%, the “glucuronides of oxidized metabolites and double glucuronides (minor products)” value [5] was 19% and the “glucuronides of parent toxins at position C-14” value [5] was 73%. The “share of species, Figure 7 pie” value [5] was 7%, the “sum of parent glucuronides” value [5] was 74% and the “LC-MS Library: metabolites generated” value [2] was “Phase I metabolites: (-(H2) +(O))-ZAN, (+(O))-ZAN, (+(H2)+ (O))-ZAN, (+(O2))-ZAN, (-(H2) +(O2))-ZAN Glucuronides: Gluc-16-ZAN, Gluc-14-ZAN, Gluc-(+O)- ZAN, 2xGluc- ZAN, Gluc-(+(H2)+(O))-ZAN, 2 × Gluc-(+O)-ZAN, 2 × Gluc-(+(H2)+(O))-ZAN”.
In the case of `C[C@H]1CCCC(=O)CCC/C=C/c2cc(O)cc(O)c2C(=O)O1` [ZEN, zearalenone], the “percentage of metabolized parent toxin” value ([1]; pH 7.4) is reported as 27%, the “Number of Metabolites (n): Desaturation oxidation, −(H2) +(O2)” value ([1]; pH 7.4) is reported as 0 and the “Number of Metabolites (n): Desaturation, oxidation, −(H2) +(O)” value ([1]; pH 7.4) is reported as 1. For the same compound, the “Number of Metabolites (n): Desaturation, oxidation, −(H4) +(O)” value ([1]; pH 7.4) was 0, the “Number of Metabolites (n): Oxidation, +(O2)” value ([1]; pH 7.4) was 0 and the “Number of Metabolites (n): Oxidation, −(H4) +(O2)” value ([1]; pH 7.4) was 0. The “Number of Metabolites (n): Reduction, oxidation, +(H2) +(O)” value ([1]; pH 7.4) was 2, the “share of Oxidation +(O) metabolites in ∑ n” value ([1]; pH 7.4) was 9(75%) and the “∑ n, total number of oxidized metabolites” value ([1]; pH 7.4) was 12. For the same compound, the “Total Number of Glucuronides” value [5] was 10, the converted into glucoronides [5] was 99% and the “glucuronides of oxidized metabolites and double glucuronides (minor products)” value [5] was 8%. The “glucuronides of parent toxins at position C-14” value [5] was 86%, the “share of species, Figure 7 pie” value [5] was 1% and the “sum of parent glucuronides” value [5] was 91%. The “LC-MS Library: metabolites generated” value [2] was “Phase I metabolites: (-(H2) +(O))-ZEN, (+(O))-ZEN, (+(H2)+ (O))-ZEN Glucuronides: Gluc-16-ZEN, Gluc-14-ZEN, Gluc-(+O)-ZEN, 2xGluc-ZEN”.
In the case of `C[C@H]1CCC[C@H](O)CCCCCc2cc(O)cc(O)c2C(=O)O1` [α-ZAL, 7-α-hydroxy-zearalanol], the “percentage of metabolized parent toxin” value [1] is reported as 29%.
For `C[C@H]1CCC[C@H](O)CCC/C=C/c2cc(O)cc(O)c2C(=O)O1` [α-ZOL, 7-α-hydroxy-zearalenol], the “percentage of metabolized parent toxin” value [1] was 70%.
In the case of `C[C@H]1CCC[C@@H](O)CCCCCc2cc(O)cc(O)c2C(=O)O1` [β-ZAL, 7-β-hydroxy-zearalanol], the “percentage of metabolized parent toxin” value [1] is reported as 23%.
